Reference: patent US20260297042A1, “BIARYLAMIDE DERIVATIVES AND THEIR USE AS PKMYT1 INHIBITORS” (CANCER RESEARCH TECHNOLOGY LIMITED, priority 2023, published 2026)

Columns and labels:
[1] = target: T1, WEE1 (Homo sapiens, UniProt P30291); assay: Selectivity versus WEE1 assay (ADP-Glo enzymatic assay); type: biochemical; settings: for IC50: ADP-Glo; for PKMYT1 vs. WEE1 selectivity: fold difference in selectivity for PKMYT1 over WEE1
T1 construct: purchased Thermo Fisher PR7373A
How it was run: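 ADP-Glo luminescent read-out after a 60-min, 26 °C kinase reaction of 15 nM WEE1 with 30 µM ATP, in HEPES pH 7.5 buffer containing MgCl2, EGTA, Brij-35 and 1% DMSO. IC50 accepted only when replicate values agree within 3-fold and curve fit r2 exceeds 0.9.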

[2] = target: T2, Human PKMYT1 (Homo sapiens, UniProt Q99640); assay: PKMYT1 biochemical ADP-Glo enzymatic assay; settings: ADP-Glo
T2 construct: Human PKMYT1 75-362 was cloned as a TEV cleavable 6xHis fusion; 6xHis (TEV cleavable) (cleaved yes); made in house; host or cells: bacterial cells
T2 sequence (Q99640 75-362): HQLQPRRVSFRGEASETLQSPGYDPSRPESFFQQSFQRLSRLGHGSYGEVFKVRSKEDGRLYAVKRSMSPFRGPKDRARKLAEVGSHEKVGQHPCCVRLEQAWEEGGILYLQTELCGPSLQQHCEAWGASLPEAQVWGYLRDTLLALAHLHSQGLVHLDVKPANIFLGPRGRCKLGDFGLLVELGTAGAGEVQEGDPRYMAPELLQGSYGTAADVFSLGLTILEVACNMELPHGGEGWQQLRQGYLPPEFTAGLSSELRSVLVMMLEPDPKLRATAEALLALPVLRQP
How it was run: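 IC50 values come from 10-point 3-fold series, with replicates required within 3-fold and r2 >0.9. ADP formed by PKMYT1 intrinsic ATPase (500 uM ATP, 60 min, 26° C.) was quantified by ADP-Glo luminescence. The enzyme was the TEV-cleaved kinase domain 75-362 at 15 nM, in HEPES pH 7.5 buffer.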

[3] = 15 nM WEE1, 60 minutes at 26° C., banded
[4] = banded, ">N" = at least in this band but could be higher
[5] = 15 nM PKMYT1 kinase domain, 500 µM ATP, 60 minutes at 26° C., banded
[6] = PKMYT1 kinase domain 15 nM, banded values

T1 sequence (P30291 whole entry): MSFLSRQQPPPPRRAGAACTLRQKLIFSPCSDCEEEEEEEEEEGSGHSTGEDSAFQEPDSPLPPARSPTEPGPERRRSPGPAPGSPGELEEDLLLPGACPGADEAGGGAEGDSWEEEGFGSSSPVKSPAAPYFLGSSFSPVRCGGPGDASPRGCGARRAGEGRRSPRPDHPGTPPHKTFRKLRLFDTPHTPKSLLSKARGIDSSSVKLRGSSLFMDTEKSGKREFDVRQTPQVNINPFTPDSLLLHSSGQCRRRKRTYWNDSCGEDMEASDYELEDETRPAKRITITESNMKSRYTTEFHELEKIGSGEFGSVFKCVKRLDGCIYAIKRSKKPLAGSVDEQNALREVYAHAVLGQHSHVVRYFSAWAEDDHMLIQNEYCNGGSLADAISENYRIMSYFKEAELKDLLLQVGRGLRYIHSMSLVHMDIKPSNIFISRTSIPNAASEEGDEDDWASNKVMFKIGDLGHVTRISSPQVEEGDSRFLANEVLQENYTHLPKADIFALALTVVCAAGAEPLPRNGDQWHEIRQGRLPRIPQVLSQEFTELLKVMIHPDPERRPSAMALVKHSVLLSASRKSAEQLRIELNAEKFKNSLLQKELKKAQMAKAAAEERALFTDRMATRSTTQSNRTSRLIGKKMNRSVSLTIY

Row | SMILES | IC50 [1, 3] | PKMYT1 vs. WEE1 selectivity [1, 4] | IC50 [2, 5] | IC50 ([1]; WEE1 15 nM, banded values) | PKMYT1 vs. WEE1 selectivity ([1]; banded) | IC50 [2, 6]
1 | Cc1ccc(O)c(C)c1NC(=O)c1cnc(Nc2ccn(CC(=O)NCCO)n2)s1 [BAA-147, N-(3-hydroxy-2,6-dimethyl-phenyl)-2-[[1-[2-(2-hydroxyethylamino)-2-oxo-ethyl]pyrazol-3-yl]amino]thiazole-5-carboxamide] | > 11000 nM | Y (1000-5000 fold) | < 50 nM |  |  | 
2 | Cc1ccc(O)c(C)c1NC(=O)c1cnc(Nc2ccn(CC(=O)NCCN3CCNCC3)n2)s1 [BAA-228, N-(3-hydroxy-2,6-dimethylphenyl)-2-((1-(2-oxo-2-((2-(piperazin-1-yl)ethyl)amino)ethyl)-1H-pyrazol-3-yl)amino)thiazole-5-carboxamide] | > 11000 nM | X (100-<1000 fold) | < 50 nM |  |  | 
3 | CCN(CCO)C(=O)Cn1cc(C)c(Nc2ncc(C(=O)Nc3c(C)ccc(O)c3C)s2)n1 [BAA-535, 2-((1-(2-(Ethyl(2-hydroxyethyl)amino)-2-oxoethyl)-4-methyl-1H-pyrazol-3-yl)amino)-N-(3-hydroxy-2,6-dimethylphenyl)thiazole-5-carboxamide] |  |  |  | 1000 to 11000 nM | X (100-<1000 fold) | < 50 nM
4 | Cc1ccc(O)c(C)c1NC(=O)c1cnc(NCCO)s1 [BAA-062, N-(3-hydroxy-2,6-dimethyl-phenyl)-2-(2-hydroxyethylamino)thiazole-5-carboxamide] | > 11000 nM | >W (10-<100 fold) | 1000 to 11000 nM |  |  | 
5 | Cc1ccc(O)c(C)c1NC(=O)c1cnc(Nc2cccc3cccnc23)s1 [BAA-487, N-(3-hydroxy-2,6-dimethylphenyl)-2-(quinolin-8-ylamino) thiazole-5-carboxamide] |  |  |  | > 11000 nM | X (100-<1000 fold) | 50 to 1000 nM
6 | Cc1c(O)ccc(Br)c1NC(=O)c1cnc(Nc2ccn(C)n2)s1 [BAA-498, N-(6-bromo-3-hydroxy-2-methylphenyl)-2-((1-methyl-1H-pyrazol-3-yl)amino)thiazole-5-carboxamide] |  |  |  | 1000 to 11000 nM | W (10-<100 fold) | 50 to 1000 nM
7 | Cc1ccc(O)c(C)c1NC(=O)c1cnc(Nc2cc(C)n(C(C)C(=O)N3CCCC3)n2)s1 (stereo not drawn) [BAA-508, N-(3-hydroxy-2,6-dimethylphenyl)-2-((5-methyl-1-(1-oxo-1-(pyrrolidin-1-yl)propan-2-yl)-1H-pyrazol-3-yl)amino)thiazole-5-carboxamide] |  |  |  | > 11000 nM | W (10-<100 fold) | 50 to 1000 nM
8 | Cc1ccc(O)c(C)c1NC(=O)c1cnc(NCC2CCN(C(=O)CC(C)(C)C)CC2)s1 [BAA-212, 2-[[1-(3,3-Dimethylbutanoyl)-4-piperidyl]methylamino]-N-(3-hydroxy-2,6-dimethyl-phenyl)thiazole-5-carboxamide] | > 11000 nM | >X (100-<1000 fold) | 50 to 1000 nM |  |  | 
9 | Cc1ccc(O)c(C)c1NC(=O)c1cnc(NCCCN2CCN(C(=O)OC(C)(C)C)CC2)s1 [BAA-073, tert-butyl 4-[3-[[5-[(3-hydroxy-2,6-dimethyl-phenyl)carbamoyl]thiazol-2-yl]amino]propyl]piperazine-1-carboxylate] | > 11000 nM | >X (100-<1000 fold) | 50 to 1000 nM |  |  | 
10 | Cc1nc2cc(Nc3ncc(C(=O)Nc4c(C)ccc(O)c4C)s3)ccc2o1 [BAA-445, N-(3-hydroxy-2,6-dimethylphenyl)-2-((2-methylbenzo[d]oxazol-5-yl)amino)thiazole-5-carboxamide] |  |  |  | 1000 to 11000 nM | X (100-<1000 fold) | 50 to 1000 nM
11 | Cc1ccc(O)c(C)c1NC(=O)c1cnc(Nc2ccn(CC(=O)N3CCCCC3)n2)s1 [BAA-149, N-(3-hydroxy-2,6-dimethyl-phenyl)-2-[[1-[2-oxo-2-(1-piperidyl)ethyl]pyrazol-3-yl]amino]thiazole-5-carboxamide] | > 11000 nM | Y (1000-5000 fold) | < 50 nM |  |  | 
12 | Cc1ccc(O)c(C)c1NC(=O)c1cnc(Nc2cccc3c2CCC3)s1 [BAA-443, 2-((2,3-dihydro-1H-inden-4-yl)amino)-N-(3-hydroxy-2,6-dimethylphenyl)thiazole-5-carboxamide] |  |  |  | > 11000 nM | X (100-<1000 fold) | 50 to 1000 nM
13 | Cc1ccc(O)c(C)c1NC(=O)c1cnc(Nc2ccn(CC(=O)N3CCCN(C)CC3)n2)s1 [BAA-171] | > 11000 nM | X (100-<1000 fold) | < 50 nM |  |  | 
14 | Cc1ccc(O)c(C)c1NC(=O)c1cnc(Nc2cc(C)n(CC(C)O)n2)s1 (stereo not drawn) [BAA-540, N-(3-hydroxy-2,6-dimethylphenyl)-2-((1-(2-hydroxypropyl)-5-methyl-1H-pyrazol-3-yl)amino)thiazole-5-carboxamide] |  |  |  | 1000 to 11000 nM | X (100-<1000 fold) | < 50 nM
15 | Cc1ccc(O)c(C)c1NC(=O)c1cnc(NCc2cn[nH]c2)s1 [BAA-360, 2-(((1H-pyrazol-4-yl)methyl)amino)-N-(3-hydroxy-2,6-dimethylphenyl) thiazole-5-carboxamide] | > 11000 nM | Y (1000-5000 fold) | < 50 nM |  |  | 
16 | Cc1ccc(O)c(C)c1NC(=O)c1cnc(Nc2c3cnccc3nn2C)s1 [BAA-248, N-(3-hydroxy-2,6-dimethylphenyl)-2-((2-methyl-2H-pyrazolo[4,3-c]pyridin-3-yl)amino)thiazole-5-carboxamide] | 1000 to 11000 nM | X (100-<1000 fold) | < 50 nM |  |  | 
17 | Cc1ccc(O)c(C)c1NC(=O)c1cnc(Nc2nn(C)c3c2CCCC3)s1 [BAA-246, N-(3-hydroxy-2,6-dimethylphenyl)-2-((1-methyl-4,5,6,7-tetrahydro-1H-indazol-3-yl)amino)thiazole-5-carboxamide] | > 11000 nM | W (10-<100 fold) | 1000 to 11000 nM |  |  | 
18 | Cc1ccc(O)c(C)c1NC(=O)c1cnc(Nc2ccn([C@@H]3CCN(C(=O)CC(C)C)C3)n2)s1 [BAA-096, N-(3-hydroxy-2,6-dimethyl-phenyl)-2-[[1-[(3R)-1-(3-methylbutanoyl)pyrrolidin-3-yl]pyrazol-3-yl]amino]thiazole-5-carboxamide] | > 11000 nM | >Y (1000-5000 fold) | 50 to 1000 nM |  |  | 
19 | CCOC(=O)Cn1ccc(Nc2ncc(C(=O)Nc3c(C)ccc(O)c3C)s2)n1 [BAA-023] | 1000 to 11000 nM | X (100-<1000 fold) | < 50 nM |  |  | 
20 | Cc1cn(CC(=O)N2CCN(C)CC2)nc1Nc1ncc(C(=O)Nc2c(C)ccc(O)c2C)s1 [BAA-205, N-(3-hydroxy-2,6-dimethyl-phenyl)-2-[[4-methyl-1-[2-(4-methylpiperazin-1-yl)-2-oxo-ethyl]pyrazol-3-yl]amino]thiazole-5-carboxamide] | > 11000 nM | Y (1000-5000 fold) | < 50 nM |  |  | 
21 | Cc1nc(Cl)cc(Nc2ncc(C(=O)Nc3c(C)ccc(O)c3C)s2)n1 [BAA-436, 2-((6-chloro-2-methylpyrimidin-4-yl)amino)-N-(3-hydroxy-2,6-dimethylphenyl)thiazole-5-carboxamide] |  |  |  | > 11000 nM | Z (>5000 fold) | < 50 nM
22 | Cc1ccc(O)c(C)c1NC(=O)c1cnc(Nc2ccn(C3CCCCC3)n2)s1 [BAA-015, 2-[(1-cyclohexylpyrazol-3-yl)amino]-N-(3-hydroxy-2,6-dimethyl-phenyl)thiazole-5-carboxamide] | 1000 to 11000 nM | X (100-<1000 fold) | < 50 nM |  |  | 
23 | CCC(=O)N1CC[C@@H](n2ccc(Nc3ncc(C(=O)Nc4c(C)ccc(O)c4C)s3)n2)C1 [BAA-085] | > 11000 nM | >Y (1000-5000 fold) | < 50 nM |  |  | 
24 | CCN(C)C(=O)N1CC[C@@H](n2ccc(Nc3ncc(C(=O)Nc4c(C)ccc(O)c4C)s3)n2)C1 [BAA-111, 2-[[1-[(3R)-1-[Ethyl(methyl)carbamoyl]pyrrolidin-3-yl]pyrazol-3-yl]amino]-N-(3-hydroxy-2,6-dimethyl-phenyl)thiazole-5-carboxamide] | > 11000 nM | >Y (1000-5000 fold) | 50 to 1000 nM |  |  | 
25 | Cc1ccc(O)c(C)c1NC(=O)c1cnc(Nc2ccc(C#N)c(F)c2)s1 [BAA-283, 2-((4-cyano-3-fluorophenyl)amino)-N-(3-hydroxy-2,6-dimethylphenyl)thiazole-5-carboxamide] | > 11000 nM | W (10-<100 fold) | 1000 to 11000 nM |  |  | 
26 | Cc1cc(C)c(NC(=O)c2cnc(Nc3ccn(CC(=O)N4CCCC4)n3)s2)c(C)c1O [BAA-516, N-(3-hydroxy-2,4,6-trimethylphenyl)-2-((1-(2-oxo-2-(pyrrolidin-1-yl)ethyl)-1H-pyrazol-3-yl)amino)thiazole-5-carboxamide] |  |  |  | > 11000 nM | X (100-<1000 fold) | 50 to 1000 nM
